Source: patent US20210139497A1, “THIENOCYCLIC COMPOUND AND SYNTHESIS METHOD THEREFOR AND APPLICATION THEREOF” (SHANGHAI YUYAO BIOTECH LTD., priority 2017, published 2021)

Tests used:
[1] = molecular target: T1, human PGE2 receptor EP4 subtype (hEP4) (Homo sapiens, UniProt P35408); assay: Calcium flux of human prostaglandin E2 receptor EP4 subtype; assay type: cell-based; conditions: CHO-K1-Gα16 cells overexpressing hEP4, calcium flux activated by prostaglandin E2; read-out: hEP4 Ca^2+ IC50
T1 construct: expressed in transfected cells; host or cells: CHO-K1-Gα16
Description: (§1) CHO-K1-Gα16 cells at the logarithmic growth phase were transfected with EP4 overexpressing vector by Lipofectamine 2000 and then seeded in a 96-well plate (Falcon, CA) and cultured at 20000 cells per 100 μL culture medium overnight. On the second day, every single well were added with 100 μL calcium 5 detection reagents (Molecular Devices) and incubated in incubator at 37° C., 5% CO2 for 45 minutes. The compounds were diluted in HBSS detection buffer, then added to 96-well plates. After incubated for 20 min at room temperature away from light, certain concentration of prostaglandin E2 was used to activate calcium flux of cells for detection (Flexstation 3, MD, CA).
(§2) Calculate the IC50 of the compounds of the invention in inhibiting the calcium flux of human PGE2 receptor EP4 subtype (hEP4) and mouse PGE2 receptor EP4 subtype (mEP4) (i.e. the concentration of drugs at which the intracellular Ca^2+ flux is inhibited by half after overexpressing hEP4 and mEP4 receptors in CHO-K1-Gα16 cells). The IC50 of the drugs were calculated using GraphPad Prism 5.

[2] = molecular target: T2, mouse PGE2 receptor EP4 subtype (mEP4) (Mus musculus, UniProt P32240); assay: Calcium flux of mouse prostaglandin E2 receptor EP4 subtype; assay type: cell-based; conditions: CHO-K1-Gα16 cells overexpressing mEP4, calcium flux activated by prostaglandin E2; read-out: mEP4 Ca^2+ IC50
T2 construct: expressed in transfected cells; host or cells: CHO-K1-Gα16
Description: as §1, §2

[3] = Cytotoxicity evaluation (CCK8), EMT-6; conditions: mouse, EMT-6 breast cancer cells
Description: (§5) Cells with a density of 2000-8000 cells per 100 μL medium were seeded in 96-well plates (Falcon, CA) and incubated for 24 hours, then treated with drugs having different concentration gradient (at least 4 replicates per concentration) and incubated at 37° C. in 5% CO2 incubator for 72 hours. Then cell viability was detected by CCK8 method. That is to say, add 10 μL CCK8 to each well and incubate for 0.33-2 h, and the OD values are read by microplate reader at 450 nm. The inhibition rate on cell survival of compounds with each concentration were calculated.
(§6) Inhibition rate on cell survival=(OD value of groups with each concentration/OD
(§7) value of control group)×100%±standard deviation.
(§8) The IC50 of drugs were calculated using GraphPad Prism 5.0.

[4] = Cytotoxicity evaluation (CCK8), CT26; conditions: mouse, CT26 intestinal cancer cells
Description: as §5, §6, §7, §8

[5] = molecular target: T3, human prostaglandin E2 receptor EP2 subtype (Homo sapiens, UniProt P43116); assay: Calcium flux of human prostaglandin E2 receptor EP2 subtype; assay type: cell-based; conditions: CHO-K1-Gα16 cells overexpressing human EP2, activated by prostaglandin E2; read-out: hEP2 Ca^2+ IC50
T3 construct: expressed in transfected cells; host or cells: CHO-K1-Gα16
Description: (§3) CHO-K1-Gα16 cells at the logarithmic growth phase were transfected with human prostaglandin E2 Receptor subtypes EP1, EP2 or EP3 overexpressing vector by Lipofectamine 2000, then seeded in a 96-well plate (Falcon, CA) at a density of 20000 cells per 100 μL culture medium for overnight culture. On the second day, every single well were added with 100 μL calcium 5 detection reagents (Molecular Devices) and incubated in incubator at 37° C., 5% CO2 for 45 minutes. The compounds were diluted with HBSS detection buffer, then were added to 96-well plates. After 20 min incubation at room temperature in the dark, prostaglandin E2 at certain concentration was used to activate calcium flux of cells for detection (Flexstation 3, MD, CA).
(§4) Calculate the IC50 of the compounds of the invention in inhibiting the calcium flux of human EP1, EP2, and EP3 receptor (i.e. the concentration of drugs at which the intracellular Ca^2+ flux being inhibited by half after overexpressing human EP1, EP2, and EP3 receptors in CHO-K1-Gα16 cells). The IC50 of the drugs were calculated using GraphPad Prism 5.

[6] = Cytotoxicity evaluation (CCK8), LLC; conditions: mouse, LLC lung cancer cells
Description: as §5, §6, §7, §8

[7] = molecular target: T4, human prostaglandin E2 receptor EP1 subtype (Homo sapiens, UniProt P34995); assay: Calcium flux of human prostaglandin E2 receptor EP1 subtype; assay type: cell-based; conditions: CHO-K1-Gα16 cells overexpressing human EP1, activated by prostaglandin E2; read-out: hEP1 Ca^2+ IC50
T4 construct: expressed in transfected cells; host or cells: CHO-K1-Gα16
T4 sequence (P34995 1-402): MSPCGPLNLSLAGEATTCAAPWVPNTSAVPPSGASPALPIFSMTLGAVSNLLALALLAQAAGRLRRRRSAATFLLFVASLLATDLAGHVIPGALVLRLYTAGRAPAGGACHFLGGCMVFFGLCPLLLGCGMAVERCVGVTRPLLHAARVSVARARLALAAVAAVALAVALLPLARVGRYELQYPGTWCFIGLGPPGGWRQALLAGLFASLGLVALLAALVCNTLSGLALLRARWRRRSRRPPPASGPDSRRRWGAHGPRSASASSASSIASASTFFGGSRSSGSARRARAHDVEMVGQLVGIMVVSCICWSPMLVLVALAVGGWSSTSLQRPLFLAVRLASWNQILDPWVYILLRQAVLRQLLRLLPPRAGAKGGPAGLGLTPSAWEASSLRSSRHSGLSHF
Description: as §3, §4

[8] = Cytotoxicity evaluation (CCK8), MOSJ; conditions: mouse, MOSJ osteosarcoma cells
Description: as §5, §6, §7, §8

[9] = molecular target: T5, human prostaglandin E2 receptor EP3 subtype (Homo sapiens, UniProt P43115); assay: Calcium flux of human prostaglandin E2 receptor EP3 subtype; assay type: cell-based; conditions: CHO-K1-Gα16 cells overexpressing human EP3, activated by prostaglandin E2; read-out: hEP3 Ca^2+ IC50
T5 construct: expressed in transfected cells; host or cells: CHO-K1-Gα16
T5 sequence (P43115 1-390): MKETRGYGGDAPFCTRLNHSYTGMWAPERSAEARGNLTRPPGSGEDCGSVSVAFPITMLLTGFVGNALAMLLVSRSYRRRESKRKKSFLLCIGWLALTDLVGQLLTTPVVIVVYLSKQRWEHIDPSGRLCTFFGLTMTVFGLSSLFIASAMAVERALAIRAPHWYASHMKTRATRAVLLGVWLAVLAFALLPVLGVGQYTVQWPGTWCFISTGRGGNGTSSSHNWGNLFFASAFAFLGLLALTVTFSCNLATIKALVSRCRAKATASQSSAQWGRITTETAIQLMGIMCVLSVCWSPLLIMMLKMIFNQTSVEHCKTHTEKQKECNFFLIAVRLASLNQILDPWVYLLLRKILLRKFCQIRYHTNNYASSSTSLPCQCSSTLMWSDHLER
Description: as §3, §4

[10] = Cytotoxicity evaluation (CCK8), PANC02; conditions: mouse, PANC02 pancreatic cancer cells
Description: as §5, §6, §7, §8

[11] = Cytotoxicity evaluation (CCK8), 293; conditions: human

T1 sequence (P35408 whole entry): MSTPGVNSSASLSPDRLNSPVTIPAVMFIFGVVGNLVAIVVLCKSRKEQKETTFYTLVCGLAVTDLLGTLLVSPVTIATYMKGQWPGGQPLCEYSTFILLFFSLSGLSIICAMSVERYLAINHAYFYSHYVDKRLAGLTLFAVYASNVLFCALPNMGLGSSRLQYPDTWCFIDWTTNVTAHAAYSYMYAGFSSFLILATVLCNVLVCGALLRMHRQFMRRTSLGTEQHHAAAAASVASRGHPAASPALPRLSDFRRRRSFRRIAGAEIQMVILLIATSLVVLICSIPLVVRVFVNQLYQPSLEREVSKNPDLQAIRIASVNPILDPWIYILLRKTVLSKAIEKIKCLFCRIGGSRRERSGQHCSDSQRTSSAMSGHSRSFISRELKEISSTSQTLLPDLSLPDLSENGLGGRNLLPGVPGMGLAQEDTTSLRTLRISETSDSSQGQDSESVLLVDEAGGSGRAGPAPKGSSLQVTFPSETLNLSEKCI
T3 sequence (P43116 whole entry): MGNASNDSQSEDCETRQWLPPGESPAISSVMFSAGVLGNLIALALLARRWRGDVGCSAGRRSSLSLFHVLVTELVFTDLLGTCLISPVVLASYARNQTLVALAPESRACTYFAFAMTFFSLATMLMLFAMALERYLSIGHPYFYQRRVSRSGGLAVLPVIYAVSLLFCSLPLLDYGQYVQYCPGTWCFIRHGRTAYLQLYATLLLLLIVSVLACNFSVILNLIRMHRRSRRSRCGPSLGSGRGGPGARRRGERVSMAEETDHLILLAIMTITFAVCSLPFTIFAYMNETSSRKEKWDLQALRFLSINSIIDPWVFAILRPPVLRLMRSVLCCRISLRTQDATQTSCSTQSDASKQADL
T2 sequence (P32240 whole entry): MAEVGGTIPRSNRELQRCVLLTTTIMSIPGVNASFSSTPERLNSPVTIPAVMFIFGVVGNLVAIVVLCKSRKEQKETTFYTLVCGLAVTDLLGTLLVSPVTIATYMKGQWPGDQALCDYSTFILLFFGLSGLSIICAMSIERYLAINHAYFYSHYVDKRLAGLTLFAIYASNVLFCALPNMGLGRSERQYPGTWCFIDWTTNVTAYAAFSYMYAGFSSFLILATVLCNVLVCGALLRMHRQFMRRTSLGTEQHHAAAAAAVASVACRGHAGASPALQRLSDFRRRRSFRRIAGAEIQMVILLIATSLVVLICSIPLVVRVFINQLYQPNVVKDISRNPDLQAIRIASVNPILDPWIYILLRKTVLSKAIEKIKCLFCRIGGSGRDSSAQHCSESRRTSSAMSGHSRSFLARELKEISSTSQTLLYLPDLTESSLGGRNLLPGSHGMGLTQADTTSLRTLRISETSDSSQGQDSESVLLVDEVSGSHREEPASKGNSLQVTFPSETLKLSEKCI

IC50 [1] [nM] | IC50 [2] [nM] | IC50 [5] [µM] | IC50 [7] [µM] | IC50 [9] [µM] | SMILES | IC50 at 72 h [3] [µM] | IC50 at 72 h [4] [µM] | IC50 at 72 h [6] [µM] | IC50 at 72 h [8] [µM] | IC50 at 72 h [10] [µM] | IC50 at 72 h [11] [µM]
< 100 | < 100 | – | – | – | C[C@H](NC(=O)c1c(CCc2ccc(C(F)(F)F)cc2)sc2c1CCOC2)c1ccc(C(=O)O)cc1 [YJ111, (S)-4-(1-(2-(4-(trifluoromethyl)phenethyl)-5,7-dihydro-4H-thieno[2,3-c]pyran-3-carboxamido)ethyl)benzoic Acid] | – | – | – | – | – | –
< 100 | < 100 | > 10 | > 10 | > 10 | C[C@H](NC(=O)c1c(CCc2ccc(F)cc2)sc2c1CC(C)(C)OC2)c1ccc(C(=O)O)cc1 [YJ110, (S)-4-(1-(2-(4-fluorophenethyl)-5,5-dimethyl-5,7-dihydro-4H-thieno[2,3-c]pyran-3-carboxamido)ethyl)benzoic Acid] | > 100 | > 100 | > 100 | > 100 | > 100 | > 100
– | < 100 | – | – | – | C[C@H](NC(=O)c1c(CCc2ccc(F)cc2)sc2c1CCC2)c1ccc(C(=O)O)cc1 [YJ109, (S)-4-(1-(2-(4-fluorophenethyl)-5,6-dihydro-4H-cyclopenta[b]thiophene-3-carboxamido)ethyl)benzoic Acid] | > 100 | > 100 | > 100 | > 100 | > 100 | > 100
< 100 | – | – | – | – | C[C@H](NC(=O)c1c(Cc2ccc(F)c(F)c2)sc2c1CCOC2)c1ccc(C(=O)O)cc1 [YJ127, (S)-4-(1-(2-(3,4-difluorobenzyl)-4,7-dihydro-5H-thieno[2,3-c]pyran-3-carboxamido)ethyl)benzoic Acid] | – | – | – | – | – | –
– | 100 to 1000 | > 10 | > 10 | > 10 | C[C@H](NC(=O)c1c(C#Cc2ccc(F)cc2)sc2c1CCOC2)c1ccc(C(=O)O)cc1 [YJ101, (S)-4-(1-(2-((4-fluorophenyl)ethynyl)-5,7-dihydro-4H-thieno[2,3-c]pyran-3-carboxamido)ethyl)benzoic Acid] | > 100 | > 100 | > 100 | > 100 | > 100 | > 100
< 100 | – | – | – | – | C[C@H](NC(=O)c1c(Cc2cccc(F)c2)sc2c1CCOC2)c1ccc(C(=O)O)cc1 [YJ123, (S)-4-(1-(2-(3-fluorobenzyl)-4,7-dihydro-5H-thieno[2,3-c]pyran-3-carboxamido)ethyl)benzoic Acid] | – | – | – | – | – | –
< 100 | – | – | – | – | COc1ccc(CCc2sc3c(c2C(=O)N[C@@H](C)c2ccc(C(=O)O)cc2)CCOC3)cc1 [YJ122, (S)-4-(1-(2-(4-methoxyphenethyl)-4,7-dihydro-5H-thieno[2,3-c]pyran-3-carboxamido)ethyl)benzoic Acid] | – | – | – | – | – | –
< 100 | 100 to 1000 | – | – | – | O=C(NCC1CCC(C(=O)O)CC1)c1c(Cc2ccc(F)cc2)sc2c1CCOC2 (centres unmarked) [YJ130, 4-((2-(4-fluorobenzyl)-4,7-dihydro-5H-thieno[2,3-c]pyran-3-carboxamido)methyl)cyclohexane-1-carboxylic Acid] | – | – | – | – | – | –
< 100 | < 100 | – | – | – | C[C@H](NC(=O)c1c(C#Cc2ccc(F)cc2)sc2c1CCC2)c1ccc(C(=O)O)cc1 [YJ102, (S)-4-(1-(2-((4-fluorophenyl)ethynyl)-5,6-dihydro-4H-cyclopenta[b]thiophene-3-carboxamido)ethyl)benzoic Acid] | – | – | – | – | – | –
< 100 | – | – | – | – | COc1ccc(Cc2sc3c(c2C(=O)N[C@@H](C)c2ccc(C(=O)O)cc2)CCOC3)cc1 [YJ128, (S)-4-(1-(2-(4-methoxybenzyl)-4,7-dihydro-5H-thieno[2,3-c]pyran-3-carboxamido)ethyl)benzoic Acid] | – | – | – | – | – | –
< 100 | – | – | – | – | C[C@H](NC(=O)c1c(Cc2cccc(Cl)c2)sc2c1CCOC2)c1ccc(C(=O)O)cc1 [YJ126, (S)-4-(1-(2-(3-chlorobenzyl)-4,7-dihydro-5H-thieno[2,3-c]pyran-3-carboxamido)ethyl)benzoic Acid] | – | – | – | – | – | –
< 100 | 100 to 1000 | > 10 | > 10 | > 10 | C[C@H](NC(=O)c1c(CCc2cccc(F)c2)sc2c1CCOC2)c1ccc(C(=O)O)cc1 [YJ113, (S)-4-(1-(2-(3-fluorophenethyl)-4,7-dihydro-5H-thieno[2,3-c]pyran-3-carboxamido)ethyl)benzoic Acid] | > 100 | > 100 | > 100 | > 100 | > 100 | > 100
100 to 1000 | – | – | – | – | C[C@H](NC(=O)c1c(C#Cc2ccc(F)cc2)sc2c1CC(C)(C)OC2)c1ccc(C(=O)O)cc1 [YJ105, (S)-4-(1-(2-((4-fluorophenyl)ethynyl)-5,5-dimethyl-5,7-dihydro-4H-thieno[2,3-c]pyran-3-carboxamido)ethyl)benzoic Acid] | – | – | – | – | – | –
< 100 | < 100 | 1 to 10 | 1 to 10 | 1 to 10 | C[C@H](NC(=O)c1c(NCc2ccc(C(F)(F)F)cc2)sc2c1CCOC2)c1ccc(C(=O)O)cc1 [YJ121, (S)-4-(1-(2-((4-(trifluoromethyl)benzyl)amino)-5,7-dihydro-4H-thieno[2,3-c]pyran-3-carboxamido)ethyl)benzoic Acid] | 10 to 100 | 10 to 100 | 10 to 100 | 10 to 100 | 10 to 100 | 10 to 100
< 100 | < 100 | > 10 | > 10 | > 10 | C[C@H](NC(=O)c1c(CCc2ccc(F)cc2)sc2c1CCCC2)c1ccc(C(=O)O)cc1 [YJ108, (S)-4-(1-(2-(4-fluorophenethyl)-4,5,6,7-tetrahydrobenzo[b]thiophene-3-carboxamido)ethyl)benzoic Acid] | > 100 | > 100 | > 100 | > 100 | > 100 | > 100
– | – | – | – | – | Nc1ccn([C@@H]2O[C@H](CO)[C@@H](O)C2(F)F)c(=O)n1 [gemcitabine, reference compound] | – | 0.016 ± 0.0001 | 0.0053 ± 0.0002 | – | 0.0726 ± 0.0003 | 0.0051 ± 0.0001
